From US10081632B2, “Substituted tetrahydropyrido[3′,2′:4,5]pyrrolo[1,2-α]pyrazine-2-carboxamides as RSK inhibitors” (Phoenix Molecular Designs, priority 2016, dated 2018)

Assays:
CD34+ cells = assay: Colony forming unit hematopoietic stem cell assay; type: cell-based, human; details: Homo sapiens, Hematopoietic stem cell, 336 h, CD34+ HSC, 14 days; read-out: IC50 Values - 14 days, CFU Assay
Experimental: The hematopoietic colony forming cell assay was conducted based on a protocol outlined by StemCell Technologies. […] Following the addition of CD34^+ cells isolated from human cord blood or peripheral blood (StemCell Technologies) at a final concentration of 5×10^2 cells per dish, the tubes were vortexed and allowed to stand for 5 minutes at room temperature. Next, the MethoCult mixtures were dispensed into 35 mm dishes (Corning Incorporated) through blunt end needles (StemCell Technologies) and 5 ml syringes (BD Biosciences) at a volume of 1.1 ml per dish. The medium was evenly distributed across the surface of each dish by gentle tilting and rotation. The dishes were then placed in a 100 mm culture dish (Grenier Bio-One) containing additional 35 mm dishes with sterile water to maintain humidity. […] The number of myeloid and erythroid derived colonies in both the treated and control dishes were counted and compared.

JIMT-1 cells [1] = assay: Monolayer growth inhibition, crystal violet assay; type: cell-based; details: Homo sapiens, 5 days, single dose on day 1
Text: (§1) In all instances a single dose was given on day 1 of the experiment. […] Complete (100%) growth suppression was achievable with several of the compounds in multiple different cell lines.

HCC1937 cells [2] = assay: Monolayer growth inhibition, crystal violet assay; type: cell-based; details: Homo sapiens, 5 days, single dose on day 1
Text: as §1

MDA-MB-468 cells [3] = assay: Monolayer growth inhibition, crystal violet assay; type: cell-based; details: Homo sapiens, 5 days, single dose on day 1
Text: as §1

T47D cells [4] = assay: Monolayer growth inhibition, crystal violet assay; type: cell-based; details: Homo sapiens, T47D (ER/PR), 5 days, single dose on day 1
Text: as §1

All cell lines [5] = assay: Monolayer growth inhibition, Alamar blue assay, range over all cell lines; type: cell-based; details: 120 h; range of IC50 over all cell lines of the table; read-out: IC50 Values - Alamar Blue (5 Days), Range, All
Text: (§2) In all instances a single dose was given on day 1 of the experiment.

SUM149 cells [6] = assay: Monolayer growth inhibition, Alamar blue assay; type: cell-based; details: Homo sapiens, 5 days, single dose on day 1
Text: as §2

MDA-MB-435 cells [7] = assay: Monolayer growth inhibition, Alamar blue assay; type: cell-based; details: Homo sapiens, 5 days, single dose on day 1
Text: as §2

JIMT-1 cells [8] = assay: Monolayer growth inhibition, Alamar blue assay; type: cell-based; details: Homo sapiens, 5 days, single dose on day 1
Text: as §2

HCC1937 cells [9] = assay: Monolayer growth inhibition, Alamar blue assay; type: cell-based; details: Homo sapiens, 5 days, single dose on day 1
Text: as §2

4T1 cells [10] = assay: Monolayer growth inhibition, Alamar blue assay; type: cell-based; details: Mus musculus, 5 days, single dose on day 1
Text: as §2

PC3 cells [11] = assay: Monolayer growth inhibition, Alamar blue assay; type: cell-based; details: Homo sapiens, PC-3; PC3 (Prostate), 5 days, single dose on day 1
Text: as §2

MDA-MB-468 cells [12] = assay: Monolayer growth inhibition, Alamar blue assay; type: cell-based; details: Homo sapiens, 5 days, single dose on day 1
Text: as §2

HCC1143 cells [13] = assay: Monolayer growth inhibition, Alamar blue assay; type: cell-based; details: Homo sapiens, 5 days, single dose on day 1
Text: as §2

SUM149 cells [14] = assay: Monolayer growth inhibition, crystal violet assay; type: cell-based; details: Homo sapiens, 5 days, single dose on day 1
Text: as §2

MDA-MB-435 cells [15] = assay: Monolayer growth inhibition, crystal violet assay; type: cell-based; details: Homo sapiens; MDA-MB-435 (Melanoma), 5 days, single dose on day 1
Text: as §2

SUM149-PTXR cells [16] = assay: Monolayer growth inhibition, crystal violet assay; type: cell-based; details: Homo sapiens; SUM149-PTXR (TNBC, BRCA Mutant), 5 days, single dose on day 1
Text: as §2

4T1 cells [17] = assay: Monolayer growth inhibition, crystal violet assay; type: cell-based; details: Mus musculus, 5 days, single dose on day 1
Text: as §2

PC3 cells [18] = assay: Monolayer growth inhibition, crystal violet assay; type: cell-based; details: Homo sapiens, PC-3; PC3 (Prostate), 5 days, single dose on day 1
Text: as §2

HCC1143 cells [19] = assay: Monolayer growth inhibition, crystal violet assay; type: cell-based; details: Homo sapiens, 5 days, single dose on day 1
Text: as §2

SUM149-PTXR cells [20] = assay: Monolayer growth inhibition, Alamar blue assay; type: cell-based, Human; details: Homo sapiens; SUM149-PTXR (TNBC, BRCA Mutant), 5 days, single dose on day 1
Text: as §2

T47D cells [21] = assay: Monolayer growth inhibition, Alamar blue assay; type: cell-based, Human; details: Homo sapiens, T47D (ER/PR), 5 days, single dose on day 1
Text: as §2

All cell lines [22] = assay: Monolayer growth inhibition, crystal violet assay, range over all cell lines; type: cell-based; details: 120 h; range of IC50 over all cell lines of the table; read-out: IC50 Values - Crystal Violet (5 Days), Range, All
Text: as §1

4T1 cells [23] = assay: Soft agar growth inhibition assay; type: cell-based; details: Mus musculus, 4T1, 240 h, 4T1, 10 days; read-out: IC50 Values, 10 Days, Soft Agar
Experimental: Two agar (Alfa Aesar) solutions (0.8% w/v and 0.4% w/v) were prepared in ultrapure water. The 0.8% agar solution was mixed in equal volumes with 2× media previously prepared from powder (Life Technologies) following the manufacturer's instructions and filter sterilized. The 0.8% agar and media solution was added to 24 well plates (Mandel Scientific) at 500 μl per well. The plates were placed in a humidified incubator at 37° C. with 5% CO2. Next, the 0.4% agar solution was mixed in equal volumes with 2× media. Breast cancer cell lines were added to this solution to achieve a final concentration of 2×10^4 cells per well and […] was added to each well on top of the bottom agar and media layer. […] The plates were returned to the incubator for 10-32 days, with a re-dosing of compounds or DMSO every 7 days. After 10-32 days, colonies were counted in 3 different fields of view for each well.
Representative compounds described herein were tested in the soft agar growth inhibition assay against the 4T1 breast cancer cell line.

MDA-MB-231 cells [24] = assay: Monolayer growth inhibition, Alamar blue assay; type: cell-based; details: Homo sapiens; MDA-MB-231 (TNBC), 5 days, single dose on day 1
Text: as §2

MDA-MB-231 cells [25] = assay: Monolayer growth inhibition, crystal violet assay; type: cell-based; details: Homo sapiens; MDA-MB-231 (TNBC), 5 days, single dose on day 1
Text: as §2

[26] = HCC1937, HCC1937 (TNBC, BRCA Mutant)
[27] = SUM149, SUM149 (TNBC, BRCA Mutant)

C[C@@H]1CNC(=O)c2cc3ccc(NC(=O)c4cnn(Cc5ccccc5)c4)nc3n21 [Compound 15, (R)-1-benzyl-N-(9-methyl-6-oxo-6,7,8,9-tetrahydropyrido[3′,2′:4,5]pyrrolo[1,2-a]pyrazin-2-yl)-1H-pyrazole-4-carboxamide]
IC50 (CD34+ cells): 23.8 µM | IC50 (JIMT-1 cells [1]; JIMT-1, JIMT-1 (HER2)): 11.2 ± 0.2 µM | IC50 (HCC1937 cells [2]; [26]): 12 ± 0.2 µM | IC50 (MDA-MB-468 cells [3]; MDA-MB-468, MDA-MB-468 (TNBC)): 11.3 ± 0.7 µM | IC50 (T47D cells [4]; T47D): 8.5 ± 0.7 µM | IC50 (All cell lines [5]): 3.6 to 21.3 µM | IC50 (SUM149 cells [6]; [27]): 11.7 ± 2.8 µM | IC50 (MDA-MB-435 cells [7]; MDA-MB-435, MDA-MB-435 (Melanoma)): 13.7 ± 3.4 µM | IC50 (JIMT-1 cells [8]; JIMT-1, JIMT-1 (HER2)): 8.3 ± 1.8 µM | IC50 (HCC1937 cells [9]; [26]): 9.7 ± 3.9 µM | IC50 (4T1 cells [10]; 4T1, 4T1 (TNBC)): 8.8 ± 2.1 µM | IC50 (PC3 cells [11]): 11.5 ± 3.4 µM | IC50 (MDA-MB-468 cells [12]; MDA-MB-468, MDA-MB-468 (TNBC)): 13.3 ± 4.1 µM | IC50 (HCC1143 cells [13]; HCC1143, HCC1143 (TNBC)): 3.6 ± 2.7 µM | IC50 (SUM149 cells [14]; [27]): 9.9 ± 3.1 µM | IC50 (MDA-MB-435 cells [15]): 8.2 ± 2.5 µM | IC50 (SUM149-PTXR cells [16]): 8.8 ± 2.2 µM | IC50 (4T1 cells [17]; 4T1, 4T1 (TNBC)): 6.9 ± 3 µM | IC50 (PC3 cells [18]): 5.9 ± 1.4 µM | IC50 (HCC1143 cells [19]; HCC1143, HCC1143 (TNBC)): 12.6 ± 3.4 µM | IC50 (SUM149-PTXR cells [20]): 9.2 ± 3 µM | IC50 (T47D cells [21]; T47D): 7.8 ± 3.7 µM | IC50 (All cell lines [22]): 5.9 to 21 µM | IC50 (4T1 cells [23]): 3.8 µM

C[C@@H]1CNC(=O)c2cc3ccc(C(=O)Nc4cnn(Cc5ccccc5N)c4)nc3n21 [Compound 17, (R)—N-(1-(2-aminobenzyl)-1H-pyrazol-4-yl)-9-methyl-6-oxo-6,7,8,9-tetrahydropyrido[3′,2′:4,5]pyrrolo[1,2-a]pyrazine-2-carboxamide]
IC50 (JIMT-1 cells [1]; JIMT-1 (HER2)): 7.4 ± 2.5 µM | IC50 (HCC1937 cells [2]; HCC1937 (TNBC, BRCA Mutant)): 7.3 ± 3.2 µM | IC50 (MDA-MB-468 cells [3]; MDA-MB-468 (TNBC)): 1.6 ± 0.7 µM | IC50 (T47D cells [4]): 6.7 ± 1.6 µM | IC50 (All cell lines [5]): 1.2 to 12.6 µM | IC50 (SUM149 cells [6]; SUM149 (TNBC, BRCA Mutant)): 8.3 ± 4.9 µM | IC50 (MDA-MB-435 cells [7]; MDA-MB-435 (Melanoma)): 1.2 ± 1 µM | IC50 (JIMT-1 cells [8]; JIMT-1 (HER2)): 12.6 ± 5.9 µM | IC50 (HCC1937 cells [9]; HCC1937 (TNBC, BRCA Mutant)): 6.8 ± 1.3 µM | IC50 (4T1 cells [10]; 4T1 (TNBC)): 3.8 ± 1.7 µM | IC50 (PC3 cells [11]): 6 ± 3.2 µM | IC50 (MDA-MB-468 cells [12]; MDA-MB-468 (TNBC)): 2.1 ± 1.1 µM | IC50 (MDA-MB-231 cells [24]): 10.3 ± 0.7 µM | IC50 (HCC1143 cells [13]; HCC1143 (TNBC)): 5 ± 1.7 µM | IC50 (SUM149 cells [14]; SUM149 (TNBC, BRCA Mutant)): 5.3 ± 2.2 µM | IC50 (MDA-MB-435 cells [15]): 1 ± 0.3 µM | IC50 (SUM149-PTXR cells [16]): 5.2 ± 0.6 µM | IC50 (4T1 cells [17]; 4T1 (TNBC)): 2 ± 0.6 µM | IC50 (PC3 cells [18]): 2.7 ± 1.2 µM | IC50 (MDA-MB-231 cells [25]): 5.1 ± 2 µM | IC50 (HCC1143 cells [19]; HCC1143 (TNBC)): 8.9 ± 3.2 µM | IC50 (SUM149-PTXR cells [20]): 4.2 ± 1.5 µM | IC50 (T47D cells [21]): 5.7 ± 2.1 µM | IC50 (All cell lines [22]): 1 to 8.9 µM
